Results: patent US20180148418A1, “AMIDO-SUBSTITUTED CYCLOHEXANE DERIVATIVES” (Bayer Pharma Aktiengesellschaft, priority 2015, published 2018)

The compounds below were run on wildtype Wnt signaling cascade (assay: HEK293 TOP assay (Super TopFlash luciferase reporter, Wnt-3a stimulated)). Conditions: Homo sapiens, HEK293, 16 h, HEK293 TOP reporter cells, Wnt3a at EC50, 16 hours.
Format: cell-based
In short: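 Compound series (50 μM down to 15 nM, 3.16-fold) diluted from DMSO 50-fold into CAFTY buffer, pH 7.4, 2 mM Ca^2+, 0.01% BSA, applied to Wnt-3a-stimulated HEK293 TopFlash and FOP reporter lines in parallel. Cells seeded 10000/well 24 h before; luciferase signal measured.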

| Structure (SMILES) | IC50 |
| --- | --- |
| CN1CC(NC(=O)c2nc[nH]c2C(=O)N[C@H]2CC[C@@]3(CCN(c4ccc(F)cc4Cl)C3=O)CC2)C1 [Example 187, N^5-[(trans)-2-(2-chloro-4-fluorophenyl)-1-oxo-2-azaspiro[4.5]dec-8-yl]-N^4-(1-methylazetidin-3-yl)-1H-imidazole-4,5-dicarboxamide] | 5.9 nM |
| NC(=O)c1nc[nH]c1C(=O)N[C@H]1CC[C@@]2(CCN(c3ccc(F)cc3Cl)C2=O)CC1 [Example 186, N^5-[(trans)-2-(2-chloro-4-fluorophenyl)-1-oxo-2-azaspiro[4.5]dec-8-yl]-1H-imidazole-4,5-dicarboxamide] | 2.1 nM |
| Cc1cc(N(C)C(=O)[C@H]2CC[C@H](NC(=O)c3cnn4cccnc34)CC2)c(Cl)cc1F [Example 176, N-{trans-4-[(2-chloro-4-fluoro-5-methylphenyl)(methyl)carbamoyl]cyclohexyl}pyrazolo[1,5-a]pyrimidine-3-carboxamide] | 350 nM |
| Cc1cc(C)n2ncc(C(=O)N[C@H]3CC[C@@]4(CCN(c5ccccc5Cl)C4=O)CC3)c2n1 [Example 257, N-[(trans)-2-(2-chlorophenyl)-1-oxo-2-azaspiro[4.5]dec-8-yl]-5,7-dimethylpyrazolo[1,5-a]pyrimidine-3-carboxamide] | 1.4 nM |
| O=C(N[C@H]1CC[C@@]2(CCN(c3ccc(F)cc3Cl)C2=O)CC1)c1cnn2ccc(N3CCCC3)nc12 [Example 232, N-[(trans)-2-(2-chloro-4-fluorophenyl)-1-oxo-2-azaspiro[4.5]dec-8-yl]-5-(pyrrolidin-1-yl)pyrazolo[1,5-a]pyrimidine-3-carboxamide] | 6.4 nM |
| Cc1ccccc1N(C)C(=O)[C@H]1CC[C@H](NC(=O)c2cnn3cccnc23)CC1 [Example 178, N-{trans-4-[methyl(2-methylphenyl)carbamoyl]cyclohexyl}pyrazolo[1,5-a]pyrimidine-3-carboxamide] | 560 nM |
| O=C(N[C@H]1CC[C@@]2(CCN(c3ccccc3Cl)C2=O)CC1)c1cnn2cccnc12 [Example 256, N-[(trans)-2-(2-chlorophenyl)-1-oxo-2-azaspiro[4.5]dec-8-yl]pyrazolo[1,5-a]pyrimidine-3-carboxamide] | 2.3 nM |
| O=C(N[C@H]1CC[C@@]2(CCN(c3cccc(Cl)c3)C2=O)CC1)c1cnc2cccnn12 [Example 269, N-[(trans)-2-(3-chlorophenyl)-1-oxo-2-azaspiro[4.5]dec-8-yl]imidazo[1,2-b]pyridazine-3-carboxamide] | 65 nM |
| O=C(N[C@H]1CC[C@H](C(=O)N(CC2CC2)c2ccc(F)cc2Cl)CC1)c1cnn2cccnc12 [Example 177, N-{trans-4-[(2-chloro-4-fluorophenyl)(cyclopropylmethyl)carbamoyl]cyclohexyl}pyrazolo[1,5-a]pyrimidine-3-carboxamide] | 71 nM |
| Cc1cc(N2CC[C@]3(CC[C@@H](NC(=O)c4cnn5cccnc45)CC3)C2=O)c(Cl)cc1F [Example 267, N-[(trans)-2-(2-chloro-4-fluoro-5-methylphenyl)-1-oxo-2-azaspiro[4.5]dec-8-yl]pyrazolo[1,5-a]pyrimidine-3-carboxamide] | 3.2 nM |
| Cc1nn2cccnc2c1C(=O)N[C@H]1CC[C@@]2(CCN(c3ccc(F)cc3Cl)C2=O)CC1 [Example 216, N-[(trans)-2-(2-chloro-4-fluorophenyl)-1-oxo-2-azaspiro[4.5]dec-8-yl]-2-methylpyrazolo[1,5-a]pyrimidine-3-carboxamide] | 71 nM |
| CCNC(=O)c1nc[nH]c1C(=O)N[C@H]1CC[C@@]2(CCN(c3cc(F)c(F)cc3Cl)C2=O)CC1 [Example 197, N^5-[(trans)-2-(2-chloro-4,5-difluorophenyl)-1-oxo-2-azaspiro[4.5]dec-8-yl]-N^4-ethyl-1H-imidazole-4,5-dicarboxamide] | 0.74 nM |
| O=C(NC1CC1)c1nc[nH]c1C(=O)N[C@H]1CC[C@@]2(CCN(c3cc(F)c(F)cc3Cl)C2=O)CC1 [Example 199, N^5-[(trans)-2-(2-chloro-4,5-difluorophenyl)-1-oxo-2-azaspiro[4.5]dec-8-yl]-N^4-cyclopropyl-1H-imidazole-4,5-dicarboxamide] | 0.98 nM |
| COCCNC(=O)c1nc[nH]c1C(=O)N[C@H]1CC[C@@]2(CCN(c3ccccc3Cl)C2=O)CC1 [Example 259, N^5-[(trans)-2-(2-chlorophenyl)-1-oxo-2-azaspiro[4.5]dec-8-yl]-N^4-(2-methoxyethyl)-1H-imidazole-4,5-dicarboxamide] | 8.6 nM |

The next lines start with the values.

| IC50 | Structure (SMILES) |
| --- | --- |
| 190 nM | CNC(=O)c1nc[nH]c1C(=O)N[C@H]1CC[C@]2(CCN(c3ccc(F)cc3Cl)C2=O)CC1 [Example 182, N^5-[(cis)-2-(2-chloro-4-fluorophenyl)-1-oxo-2-azaspiro[4.5]dec-8-yl]-N^4-methyl-1H-imidazole-4,5-dicarboxamide] |
| 190 nM | CNC(=O)c1nc[nH]c1C(=O)N[C@H]1CC[C@H](C(=O)N(C)c2ccc(F)cc2Cl)CC1 [Example 173, N^5-{trans-4-[(2-chloro-4-fluorophenyl)(methyl)carbamoyl]cyclohexyl}-N^4-methyl-1H-imidazole-4,5-dicarboxamide] |
| 2.3 nM | CNC(=O)c1nc[nH]c1C(=O)N[C@H]1CC[C@@]2(CCN(c3ccccc3Cl)C2=O)CC1 [Example 264, N^5-[(trans)-2-(2-chlorophenyl)-1-oxo-2-azaspiro[4.5]dec-8-yl]-N^4-methyl-1H-imidazole-4,5-dicarboxamide] |
| 90 nM | CNC(=O)c1nc[nH]c1C(=O)N[C@H]1CC[C@H](C(=O)Nc2cccnc2Cl)CC1 [Example 10, N^5-{trans-4-[(2-chloropyridin-3-yl)carbamoyl]cyclohexyl}-N^4-methyl-1H-imidazole-4,5-dicarboxamide] |
| 25000 nM | CNC(=O)c1nc[nH]c1C(=O)N[C@H]1CC[C@H](C(=O)N(C)c2ccccc2C)CC1 [Example 203, N^4-methyl-N^5-{trans-4-[methyl(2-methylphenyl)carbamoyl]cyclohexyl}-1H-imidazole-4,5-dicarboxamide] |
| 49 nM | O=C(NC1CC1)c1nc[nH]c1C(=O)N[C@H]1CC[C@H](C(=O)Nc2ccc(F)cc2Cl)CC1 [Example 17, N^5-{trans-4-[(2-chloro-4-fluorophenyl)carbamoyl]cyclohexyl}-N^4-cyclopropyl-1H-imidazole-4,5-dicarboxamide] |
| 71 nM | CCNC(=O)c1nc[nH]c1C(=O)N[C@H]1CC[C@H](C(=O)Nc2ccc(F)cc2Cl)CC1 [Example 15, N^5-{trans-4-[(2-chloro-4-fluorophenyl)carbamoyl]cyclohexyl}-N^4-ethyl-1H-imidazole-4,5-dicarboxamide] |
| 450 nM | CNC(=O)c1nc[nH]c1C(=O)N[C@H]1CC[C@H](C(=O)N(C)c2ccccc2)CC1 [Example 171, N^4-methyl-N^5-{trans-4-[methyl(phenyl)carbamoyl]cyclohexyl}-1H-imidazole-4,5-dicarboxamide] |
| 89 nM | COCCNC(=O)c1nc[nH]c1C(=O)N[C@H]1CC[C@H](C(=O)Nc2ccc(F)cc2Cl)CC1 [Example 19, N^5-{trans-4-[(2-chloro-4-fluorophenyl)carbamoyl]cyclohexyl}-N^4-(2-methoxyethyl)-1H-imidazole-4,5-dicarboxamide] |
| 95 nM | O=C(NCCN1CCOCC1)c1nc[nH]c1C(=O)N[C@H]1CC[C@H](C(=O)Nc2ccc(F)cc2Cl)CC1 [Example 13, N^5-{trans-4-[(2-chloro-4-fluorophenyl)carbamoyl]cyclohexyl}-N^4-[2-(morpholin-4-yl)ethyl]-1H-imidazole-4,5-dicarboxamide] |
